The target in experiment [1] is CDK2/Cyclin E1 full length (Homo sapiens (Human), UniProt P24941). Kind of experiment: CDK2/Cyclin E1 Full Length ADP-Glo Kinase Assay. It is filed as biochemical. The settings on record: 20 uM ATP, read-out: CDK2/ CyclinE1 IC50. In outline:
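Full-length human CDK2/Cyclin E1 (0.328 nM) pre-incubated 30 min with inhibitor at RT, then reacted 90 min at RT with 20 uM ATP (Km 64.78 uM) and 0.75 uM substrate in pH 7.5 HEPES, 2% DMSO. ADP measured by ADP-Glo luminescence; IC50 from 4-parameter fit of fractional velocity.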

Another experiment addresses CDK6/Cyclin D3 (Homo sapiens (Human), UniProt Q00534). As to the kind of experiment: CDK6/Cyclin D3 ADP-Glo Kinase Assay. Particulars: 100 uM ATP, read-out: CDK6/ CyclinD3 IC50. It is filed as biochemical. In a few lines:
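Recombinant human CDK6/Cyclin D3 pre-incubated 30 min with inhibitor at room temperature, then reaction started with ATP/substrate and run 90 min at room temperature. ADP formed detected by ADP-Glo luminescence; IC50 from a 4-parameter fit of fractional velocity versus inhibitor concentration.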
(In general: ADP-Glo first removes unused ATP, then detects ADP through luciferase.)

The next experiment deals with MCF-7 cells. Kind of experiment: Cell Growth Inhibition, MCF-7 (CellTiterGlo, 6 days). The experiment is classed as cell-based. The settings on record: MCF-7, 6-day treatment, CellTiterGlo 2.0. In a few lines:
(§1)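 MCF-7 and OVCAR-3 cells (RPMI, 10% FBS) were seeded at 500 cells/well onto compound, typically 10–10,000 nM in half-log dilutions. Growth proceeded 6 days at 37 °C, then CellTiterGlo luminescence was read. % inhibition was taken versus control, and IC50 came from a four-parameter variable-slope fit.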
In general terms: Cellular ATP, detected with luciferase, serves as a proxy for viable cell number.

Another experiment has as its target CDK4/Cyclin D1 (Homo sapiens (Human), UniProt P11802). Kind of experiment: CDK4/Cyclin D1 Mobility Shift Assay (MSA). The experiment is classed as biochemical. The settings on record: 0.2 mM ATP, read-out: CDK4/ CyclinD1 MSA IC50. An excerpt: CDK4/Cyclin D1 Mobility Shift Assay (MSA)
The purpose CDK4/Cyclin D1 assay is to evaluate the inhibition (% inhibition and IC50 values) in the presence of small molecule inhibitors by using a fluorescence based microfluidic mobility shift assay. CDK4/Cyclin D1 catalyzes the production of ADP from ATP that accompanies the phosphoryl transfer to the substrate peptide 5-FAM-Dyrktide (5-FAM-RRRFRPASPLRGPPK) (Perkin Elmer Peptide 34). The mobility shift assay (MSA) electrophoretically separates the fluorescently labelled peptides (substrate and phosphorylated product) following the kinase reaction. Both substrate and product are measured, and the ratio of these values is used to generate % conversion of substrate to product by the LabChip EZ Reader. Typical reaction solutions contained 2% DMSO (+/−inhibitor), 10 mM MgCl2, 1 mM EGTA, 0.05% BSA, 2 mM DTT, 0.2 mM ATP, 0.01% Brig-35, 1.5 uM 5-FAM-Dyrktide, 2.5 nM CDK4/Cyclin D1 in 50 mM HEPES buffer at pH 7.5. The reaction was initiated with the addition of substrate solution, following a 30-minute pre-incubation of enzyme and inhibitor at 22° C. in the reaction mix. The reaction was stopped after 180 minutes by the addition of 75 uL of 500 mM EDTA and measured on a Perkin Elmer EZ reader instrument. IC50 determinations were made from a plot of the fractional velocity as a function of inhibitor concentration fit to the 4 parameters IC50 equation.

Another experiment has as its target CDK1/Cyclin B1 (Homo sapiens (Human), UniProt P06493). As to the kind of experiment: CDK1/Cyclin B1 ADP-Glo Kinase Assay. The experiment is classed as biochemical. The settings on record: 80 uM ATP. In a few lines: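 CDK1/cyclin B1 (4.917 nM) preincubated 30 min with inhibitor (2% DMSO), then 80 µM ATP (Km 78.6 µM) and 0.75 µM substrate added; 90 min, room temperature, pH 7.5. ADP measured by ADP-Glo luminescence; IC50 from 4-parameter fit.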

For a further experiment, the system named is OVCAR-3 cells. As to the kind of experiment: Cell Growth Inhibition, OVCAR-3 (CellTiterGlo, 6 days). The experiment is classed as cell-based. Particulars: OVCAR-3, 6-day treatment, CellTiterGlo 2.0. In a few lines: as §1

Like-named read-outs stand apart in the source and are kept apart here.

Sequence of CDK4/Cyclin D1 (P11802 whole entry): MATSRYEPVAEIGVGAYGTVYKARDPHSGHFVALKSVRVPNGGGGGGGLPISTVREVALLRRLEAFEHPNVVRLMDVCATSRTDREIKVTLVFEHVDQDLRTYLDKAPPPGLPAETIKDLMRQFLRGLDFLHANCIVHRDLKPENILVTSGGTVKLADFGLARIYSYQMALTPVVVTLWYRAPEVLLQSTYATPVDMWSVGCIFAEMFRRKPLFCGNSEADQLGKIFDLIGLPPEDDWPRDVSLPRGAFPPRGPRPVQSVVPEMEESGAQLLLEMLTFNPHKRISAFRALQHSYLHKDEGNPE
Sequence of CDK4/Cyclin D1 (P24385 whole entry partner): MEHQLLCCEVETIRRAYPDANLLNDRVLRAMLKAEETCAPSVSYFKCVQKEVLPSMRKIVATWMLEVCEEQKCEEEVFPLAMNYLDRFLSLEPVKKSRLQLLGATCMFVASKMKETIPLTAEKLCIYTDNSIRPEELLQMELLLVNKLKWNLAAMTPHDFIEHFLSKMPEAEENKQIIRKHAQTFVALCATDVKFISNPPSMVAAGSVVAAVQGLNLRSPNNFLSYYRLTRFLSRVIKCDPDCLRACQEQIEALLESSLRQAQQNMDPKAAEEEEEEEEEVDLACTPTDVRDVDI
Sequence of CDK6/Cyclin D3 (Q00534 whole entry): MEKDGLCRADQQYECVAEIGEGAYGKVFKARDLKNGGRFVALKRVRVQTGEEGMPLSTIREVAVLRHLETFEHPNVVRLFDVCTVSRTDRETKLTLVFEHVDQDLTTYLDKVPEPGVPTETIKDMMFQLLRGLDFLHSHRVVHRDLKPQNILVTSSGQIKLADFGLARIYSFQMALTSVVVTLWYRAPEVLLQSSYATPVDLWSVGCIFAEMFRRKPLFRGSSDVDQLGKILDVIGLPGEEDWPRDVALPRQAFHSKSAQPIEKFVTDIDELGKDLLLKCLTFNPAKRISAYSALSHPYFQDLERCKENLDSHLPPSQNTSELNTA
Sequence of CDK6/Cyclin D3 (P30281 whole entry partner): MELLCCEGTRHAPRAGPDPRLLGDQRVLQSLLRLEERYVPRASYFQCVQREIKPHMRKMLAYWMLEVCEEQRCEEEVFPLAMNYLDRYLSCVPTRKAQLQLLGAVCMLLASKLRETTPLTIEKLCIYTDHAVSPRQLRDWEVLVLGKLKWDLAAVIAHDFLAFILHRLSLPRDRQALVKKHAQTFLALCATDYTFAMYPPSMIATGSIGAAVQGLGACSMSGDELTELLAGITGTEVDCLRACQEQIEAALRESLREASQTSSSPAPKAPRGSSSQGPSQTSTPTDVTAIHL
Sequence of CDK1/Cyclin B1 (P06493 whole entry): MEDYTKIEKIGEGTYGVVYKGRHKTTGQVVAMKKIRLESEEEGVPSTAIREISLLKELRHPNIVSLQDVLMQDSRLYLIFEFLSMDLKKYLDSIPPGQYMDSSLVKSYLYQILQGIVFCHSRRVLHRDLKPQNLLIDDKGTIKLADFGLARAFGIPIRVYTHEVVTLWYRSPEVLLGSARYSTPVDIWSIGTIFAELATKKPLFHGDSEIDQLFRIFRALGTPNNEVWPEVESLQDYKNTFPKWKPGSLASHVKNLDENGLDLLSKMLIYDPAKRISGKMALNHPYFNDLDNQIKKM
Sequence of CDK1/Cyclin B1 (P14635 whole entry partner): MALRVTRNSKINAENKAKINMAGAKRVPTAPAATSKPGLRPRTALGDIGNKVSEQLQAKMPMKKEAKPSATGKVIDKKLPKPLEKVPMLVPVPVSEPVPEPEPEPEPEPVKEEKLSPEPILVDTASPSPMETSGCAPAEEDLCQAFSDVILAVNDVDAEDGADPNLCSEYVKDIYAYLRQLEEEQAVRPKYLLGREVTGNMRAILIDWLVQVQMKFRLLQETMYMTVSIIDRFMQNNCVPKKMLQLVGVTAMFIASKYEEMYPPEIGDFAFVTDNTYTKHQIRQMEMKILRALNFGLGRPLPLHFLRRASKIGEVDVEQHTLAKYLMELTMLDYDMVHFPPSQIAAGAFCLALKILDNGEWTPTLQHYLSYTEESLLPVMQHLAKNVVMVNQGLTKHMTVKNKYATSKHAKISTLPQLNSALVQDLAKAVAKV

As for `CN1CCC2(C1)CN(c1cccc3cnc(NC4CCN(S(C)(=O)=O)CC4)nc13)C2` [Example 40, 8-(6-methyl-2,6-diazaspiro[3.4]octan-2-yl)-N-(1-(methylsulfonyl)piperidin-4-yl)quinazolin-2-amine], the IC50 was 200 to 500 nM in experiment [1]; 200 to 500 nM at CDK6/Cyclin D3; more than 2000 nM in the experiment on MCF-7 cells (Homo sapiens, MCF7, 144 h); 200 to 500 nM on CDK4/Cyclin D1; 500 to 2000 nM at CDK1/Cyclin B1; more than 2000 nM with OVCAR-3 cells (Homo sapiens, 144 h).

Consider `CC(=O)N1CCC2(CCN(c3cccc4cnc(Nc5ccc(N6CCN(C)CC6)cc5)nc34)C2)C1` (stereo not drawn) [Example 33, 1-(7-(2-((4-(4-methylpiperazin-1-yl)phenyl)amino)quinazolin-8-yl)-2,7-diazaspiro[4.4]nonan-2-yl)ethan-1-one], for which the IC50 in experiment [1] (given as number) was 5170 nM; at CDK6/Cyclin D3, less than 200 nM; in the experiment with MCF-7 cells (Homo sapiens, MCF7, 144 h), more than 2000 nM; on CDK4/Cyclin D1, less than 200 nM; at CDK1/Cyclin B1 it was more than 2000 nM; in the experiment with OVCAR-3 cells (Homo sapiens, 144 h), more than 2000 nM.

For `CC(=O)N1CCC2(CCN(c3cc(C(F)F)cc4cnc(Nc5cnn(C(C)C)c5)nc34)C2)C1` (stereo not drawn) [Example 52, 1-(7-(6-(difluoromethyl)-2-((1-isopropyl-1H-pyrazol-4-yl)amino)quinazolin-8-yl)-2,7-diazaspiro[4.4]nonan-2-yl)ethan-1-one], the IC50 in experiment [1] is 500 to 2000 nM; on CDK6/Cyclin D3 it was 500 to 2000 nM; with MCF-7 cells (Homo sapiens, MCF7, 144 h), 200 to 500 nM; at CDK4/Cyclin D1 it was less than 200 nM; against CDK1/Cyclin B1 it was 500 to 2000 nM; with OVCAR-3 cells (Homo sapiens, 144 h), 500 to 2000 nM.

For the molecule `CS(=O)(=O)N1CCC(Nc2ncc3cccc(C4CCCC4)c3n2)CC1` [Example 1, 8-cyclopentyl-N-(1-(methylsulfonyl)piperidin-4-yl)quinazolin-2-amine], the IC50 is less than 200 nM in experiment [1]; less than 200 nM on CDK6/Cyclin D3; 200 to 500 nM with MCF-7 cells (Homo sapiens, MCF7, 144 h); less than 200 nM at CDK4/Cyclin D1; less than 200 nM against CDK1/Cyclin B1; 500 to 2000 nM in the experiment with OVCAR-3 cells (Homo sapiens, 144 h).

In the case of `CS(=O)(=O)N1CCC(Nc2ncc3cccc(N4CC5(CCS5(=O)=O)C4)c3n2)CC1` [Example 19, 6-(2-((1-(methylsulfonyl)piperidin-4-yl)amino)quinazolin-8-yl)-1-thia-6-azaspiro[3.3]heptane 1,1-dioxide], the IC50 in experiment [1] was less than 200 nM; on CDK6/Cyclin D3 it was less than 200 nM; with MCF-7 cells (Homo sapiens, MCF7, 144 h), 500 to 2000 nM; on CDK4/Cyclin D1 it was less than 200 nM; at CDK1/Cyclin B1 it was 200 to 500 nM; with OVCAR-3 cells (Homo sapiens, 144 h), 500 to 2000 nM.

In the case of `COCCN1CC2(C1)CN(c1cccc3cnc(NC4CCN(S(C)(=O)=O)CC4)nc13)C2` [Example 36, 8-(6-(2-methoxyethyl)-2,6-diazaspiro[3.3]heptan-2-yl)-N-(1-(methylsulfonyl)piperidin-4-yl)quinazolin-2-amine], the IC50 is less than 200 nM in experiment [1]; 500 to 2000 nM at CDK6/Cyclin D3; more than 2000 nM with MCF-7 cells (Homo sapiens, MCF7, 144 h); less than 200 nM on CDK4/Cyclin D1; 500 to 2000 nM on CDK1/Cyclin B1; more than 2000 nM in the experiment on OVCAR-3 cells (Homo sapiens, 144 h).

Regarding `CS(=O)(=O)N1CCC(Nc2ncc3cccc(N4CCC5(C4)CC(F)(F)C5)c3n2)CC1` [Example 3, 8-(2,2-difluoro-6-azaspiro[3.4]octan-6-yl)-N-(1-(methylsulfonyl)piperidin-4-yl)quinazolin-2-amine], the IC50 is less than 200 nM in experiment [1]; less than 200 nM at CDK6/Cyclin D3; more than 2000 nM in the experiment with MCF-7 cells (Homo sapiens, MCF7, 144 h); less than 200 nM at CDK4/Cyclin D1; 500 to 2000 nM against CDK1/Cyclin B1; more than 2000 nM with OVCAR-3 cells (Homo sapiens, 144 h).

With `CS(=O)(=O)N1CCC(Nc2ncc3cccc(N4CCC5(CCC5(F)F)C4)c3n2)CC1` (stereo not drawn) [Example 37, 8-(1,1-difluoro-6-azaspiro[3.4]octan-6-yl)-N-(1-(methylsulfonyl)piperidin-4-yl)quinazolin-2-amine], the IC50 in experiment [1] is less than 200 nM; at CDK6/Cyclin D3, less than 200 nM; in the experiment with MCF-7 cells (Homo sapiens, MCF7, 144 h), more than 2000 nM; at CDK4/Cyclin D1, less than 200 nM; against CDK1/Cyclin B1, 500 to 2000 nM; with OVCAR-3 cells (Homo sapiens, 144 h), more than 2000 nM.

Regarding `CS(=O)(=O)N1CCC(Nc2ncc3cccc(N4CCC5(CCOCC5)C4)c3n2)CC1` [Example 26, N-(1-(methylsulfonyl)piperidin-4-yl)-8-(8-oxa-2-azaspiro[4.5]decan-2-yl)quinazolin-2-amine], the IC50 in experiment [1] is less than 200 nM; on CDK6/Cyclin D3, less than 200 nM; in the experiment on MCF-7 cells (Homo sapiens, MCF7, 144 h), more than 2000 nM; at CDK4/Cyclin D1, less than 200 nM; at CDK1/Cyclin B1, 500 to 2000 nM; in the experiment on OVCAR-3 cells (Homo sapiens, 144 h), more than 2000 nM.

`CN1CC2(CCN(c3cccc4cnc(Nc5ccc(N6CC7(COC7)C6)cn5)nc34)C2)C1` [Example 42, N-(5-(2-oxa-6-azaspiro[3.3]heptan-6-yl)pyridin-2-yl)-8-(2-methyl-2,6-diazaspiro[3.4]octan-6-yl)quinazolin-2-amine]: the IC50 is more than 2000 nM in experiment [1]; 200 to 500 nM on CDK6/Cyclin D3; 200 to 500 nM with MCF-7 cells (Homo sapiens, MCF7, 144 h); less than 200 nM at CDK4/Cyclin D1; more than 2000 nM against CDK1/Cyclin B1; more than 2000 nM in the experiment on OVCAR-3 cells (Homo sapiens, 144 h).

Regarding `CN1CC2(CCC1=O)CCN(c1cccc3cnc(NC4CCN(S(C)(=O)=O)CC4)nc13)C2` (stereo not drawn) [Example 55, 7-methyl-2-(2-((1-(methylsulfonyl)piperidin-4-yl)amino)quinazolin-8-yl)-2,7-diazaspiro[4.5]decan-8-one], the IC50 in experiment [1] is 500 to 2000 nM; on CDK6/Cyclin D3, 500 to 2000 nM; in the experiment on MCF-7 cells (Homo sapiens, MCF7, 144 h), more than 2000 nM; at CDK4/Cyclin D1, 200 to 500 nM; against CDK1/Cyclin B1, more than 2000 nM; with OVCAR-3 cells (Homo sapiens, 144 h) it was more than 2000 nM.

With `CC(=O)N1CCC2(CCN(c3cccc4cnc(NC5CCN(S(C)(=O)=O)CC5)nc34)C2)C1` (stereo not drawn) [Example 6, 1-(7-(2-((1-(methylsulfonyl)piperidin-4-yl)amino)quinazolin-8-yl)-2,7-diazaspiro[4.4]nonan-2-yl)ethan-1-one], the IC50 was less than 200 nM in experiment [1]; less than 200 nM at CDK6/Cyclin D3; more than 2000 nM in the experiment with MCF-7 cells (Homo sapiens, MCF7, 144 h); less than 200 nM on CDK4/Cyclin D1; more than 2000 nM against CDK1/Cyclin B1; more than 2000 nM in the experiment on OVCAR-3 cells (Homo sapiens, 144 h).

On to `CC(=O)N1CCC2(CCN(c3c(F)ccc4cnc(NC5CCN(S(C)(=O)=O)CC5)nc34)C2)C1` (stereo not drawn) [Example 45, 1-(7-(7-fluoro-2-((1-(methylsulfonyl)piperidin-4-yl)amino)quinazolin-8-yl)-2,7-diazaspiro[4.4]nonan-2-yl)ethan-1-one], for which the IC50 was less than 200 nM in experiment [1]; less than 200 nM on CDK6/Cyclin D3; more than 2000 nM with MCF-7 cells (Homo sapiens, MCF7, 144 h); less than 200 nM on CDK4/Cyclin D1; 500 to 2000 nM at CDK1/Cyclin B1; more than 2000 nM in the experiment on OVCAR-3 cells (Homo sapiens, 144 h).

Consider `FC(F)c1cc(N2CCC3(C2)CC3(F)F)c2nc(NC3[C@H]4CNC[C@@H]34)ncc2c1` (stereo partly drawn) [Example 53, 8-(1,1-difluoro-5-azaspiro[2.4]heptan-5-yl)-6-(difluoromethyl)-N-((1R,5S,6s)-3-azabicyclo[3.1.0]hexan-6-yl)quinazolin-2-amine], for which the IC50 in experiment [1] is more than 2000 nM; on CDK6/Cyclin D3, less than 200 nM; in the experiment with MCF-7 cells it was 500 to 2000 nM; at CDK4/Cyclin D1 it was less than 200 nM; on CDK1/Cyclin B1, more than 2000 nM; in the experiment with OVCAR-3 cells it was more than 2000 nM.

For the molecule `CC(=O)N1CCC2(CCN(c3cc(C(F)F)cc4cnc(NC5CCN(S(C)(=O)=O)CC5)nc34)C2)C1` (stereo not drawn) [Example 50, 1-(7-(6-(difluoromethyl)-2-((1-(methylsulfonyl)piperidin-4-yl)amino)quinazolin-8-yl)-2,7-diazaspiro[4.4]nonan-2-yl)ethan-1-one], the IC50 in experiment [1] is less than 200 nM; at CDK6/Cyclin D3 it was less than 200 nM; in the experiment with MCF-7 cells (Homo sapiens, MCF7, 144 h) it was 500 to 2000 nM; at CDK4/Cyclin D1, less than 200 nM; on CDK1/Cyclin B1 it was 200 to 500 nM; in the experiment on OVCAR-3 cells (Homo sapiens, 144 h), more than 2000 nM.
